Four molecules from patent US20220402980A1, “CHROMOGRANIN A-DERIVED PEPTIDES AND USES THEREOF” (OSPEDALE SAN RAFFAELE S.R.L., priority 2019, published 2022) can be followed below.

Like-named read-outs stand apart in the source and are kept apart here. Where a SMILES comes first, the peptide text is derived from it. Bridges are numbered along the chain shown (N, C = ends). Triazole bridges read from a SMILES are 1,4-linked. [ ]: non-standard residue; d: D form. Lys(N3) = [N-]=[N+]=NCCCC[C@H](N)C(=O)O; Pra = C#CC[C@H](N)C(=O)O

Series [1] has as its target T1, αvβ6 (Homo sapiens, UniProt P06756+P18564).
T1 construct: recombinant human αvβ6 extracellular domain (R&D Systems); purchased R&D Systems (Minneapolis, Minn.)
Description: Competitive integrin binding assay (isoDGR/STV-HRP probe), αvβ6-coated plates. As for the experimental part: (§1) Peptide binding was measured by a competitive binding assay using as integrin probe a complex made by a N-terminal acetylated isoDGR peptide biotinylated at the E-amino group of the lysine, acetyl-Ciso[…]-bio (SEQ ID No. 29), and a streptavidin-peroxidase conjugate (called isoDGR/STV-HRP)[43].
(§2) Each mixture was then added to integrin-coated wells and left to incubate for 2 h at room temperature. After washing with 25 mM Tris-HCl, pH 7.4, containing 150 mM sodium chloride, 1 mM magnesium chloride, 1 mM manganese chloride, each well was filled with a chromogenic solution (o-phenylenediamine dihydrochloride) and left to incubate for 30 min at room temperature. The chromogenic reaction was stopped by adding 1 N sulfuric acid. The absorbance at 490 nm was then measured using a microtiterplate reader. Ki values were calculated by non-linear regression analysis of competitive binding data using the “One site - Fit Ki” equation of the GraphPad Prism Software using the Kd values of the probe indicated above.

Series [2] deals with αvβ8 (Homo sapiens, UniProt P06756+P26012). Kind of series: Competitive integrin binding assay (isoDGR/STV-HRP probe), αvβ8-coated plates. As for the experimental part: as §1, §2
Series [3] has as its system BxPC-3 cells. Description: Binding of peptide-IRDye conjugates to cultured BxPC-3 cells. The class given is cell-based, human. The following applies: BxPC-3 cells; 5a-IRDye 4 nM. Here is the method: (§3) B) Binding of the indicated peptide-IRDye conjugates to the various cell lines. Various amounts of conjugates were added to cell monolayers (grown in 96-well microtiter plates) and incubated for 1 h at 37° C., 5% CO2 (see Experimental section). After washing, bound fluorescence was measured using an Odyssey CLx (LI-COR) scanner. A representative image of the scanned plate and binding quantification are reported. Mean ±SE of quadruplicate wells.
(§4) Various amounts of unlabeled peptides were mixed 5a-IRDye (4 nM) and added to the cells. After 1 h, the plates were washed, and the bound fluorescence was quantified as described above (left panels).
(§5) The binding of peptide-IRDye conjugates to BxPC-3, 5637, HUVECs, 4T1, K8484 and DT6606 cells was analyzed as follows. The cells were grown in 96-well clear-bottom black microtiterplates (Corning® cat. 3603, 2-3x10^4 cells/well, plated 48 h before the experiment). After washing twice with 0.9% sodium chloride solution, the cells were incubated with 25 mM Hepes buffer, pH 7.4, containing 150 mM sodium chloride, 1 mM magnesium chloride, 1 mM manganese chloride and 1% BSA (binding buffer) for 5 min. Peptide-IRDye conjugates (0.013-40 nM in binding buffer) were then added to the cells and left to incubate for 1 h at 37° C., 5% CO2. After three washings with binding buffer (5 min each, 200 al/well), the cells were fixed with PBS containing 2% paraformaldehyde and 3% sucrose for 15 min at room temperature. Binding of conjugates to cells was quantified by scanning the plate (filled with PBS, 100 al/well) with the Odyssey CLx (LI-COR) using the following settings: scan intensity, 8.5; scan focus offset 4; scan quality, highest; channel, 800; resolution, 169 pm. Then, the plates were incubated with 5 μg/ml of 4′,6-diamidino-2-phenylindole (DAPI) for 15 min, washed twice with PBS and read with a VICTOR3 plate reader (Perkin Elmer, Waltham, Mass., USA) to quantify the cell number in each well, using the following filters: excitation, 355±40 nm; emission, 460±25 nm (acquisition,1 s).

For series [4], the system named is 5637 cells. Description: Binding of peptide-IRDye conjugates to cultured 5637 cells. In kind it is cell-based, human. The following applies: 5637 cells; 5a-IRDye 4 nM. Here is the method: as §3, §4, §5
The nature of series [5]: in vivo. The following applies: mouse, iv, 3 MBq/animal, total radioactivity.
In series [6] the test system is human bladder carcinoma 5637 cells. Kind of series: 5637 cell viability (PrestoBlue). In kind it is cell-based. The settings on record: 48 h. Here is the method:
FIG. 12. Effect of peptides 4 and 5 on human bladder carcinoma 5637 cell viability. 5637 cells were seeded in a 96-well microtiterplate (20,000 cell/well) and cultured for 16 h at 37° C., 5% CO2. The day after the indicated doses of peptide 4 and 5 were added to the cells and left to incubate for additionally 48 h at 37° C., 5% CO2. Cell viability was assessed using the PrestoBlue* cell viability reagent (ThermoFisher) according to the manufacturer's instructions. Viability of the treated cells was normalized to that of untreated cells and is reported as a percentage (mean±SE of triplicate wells).

Series [7] in a line: Peptide stability in mouse liver microsomal preparations (RP-HPLC). The settings on record: C57BL/6, mouse, liver microsomes; 37° C.; read-out: t1/2 in mouse liver microsomes (converted). In kind it is in vitro ADME. As for the experimental part: FIG. 14. Stability of peptides 4 and 5 in murine liver microsomes as determined by RP-HPLC. a) RP-HPLC of 4 and 5 after incubation at 37° C. in murine liver microsomes. Peak 1 corresponds to 4 and 5. The peptides were added to murine liver microsomes (454 - μg/ml, final concentration) and incubated for the indicated time, diluted with an equal volume of 90% acetonitrile containing 0.1% TFA and analyzed onto a LiChrospher C18 column (16 ag). No peptide indicates liver microsome aliquot without the peptide. b) Quantification of Peak 1 area (left panel) and height (right panel) of the indicated peptides. The corresponding half-life is also shown.
The stability of compound 4 and 5 in mouse liver microsomal preparations was assessed by HPLC analysis. To this aim microsomes were prepared as follows: 11 g of mouse liver tissue (C57BL/6 mice) was homogenized in cold PBS supplemented with 0.25 M sucrose (3 ml/g of tissue) using a Potter-Elvehjem homogenizer (10 strokes), followed by additional homogenization using a rotor-stator homogenizer (40 sec). The homogenate was filtered through 70 pm cell-strainers, centrifuged three times to remove insoluble materials (500 x g, 5 min; 3000 x g, 30 min; 110000 x g, 90 min, 4° C.). […] Protein concentration was measured by measuring the absorbance at 280 nm with a NanoDrop spectrophotometer (Thermo Scientific). […]

Consider `CC[C@H](C)[C@H](NC(=O)[C@H](CCCNC(=N)N)NC(=O)[C@H](CCC(=O)O)NC(=O)[C@H](CCC(=O)O)NC(=O)CNC(=O)[C@H](CCCNC(=N)N)NC(=O)[C@H](CC(C)C)NC(=O)[C@@H](NC(=O)[C@H](CCC(=O)O)NC(=O)[C@H](Cc1ccccc1)NC(=O)[C@@H](N)CS)[C@@H](C)O)C(=O)N[C@@H](CC(C)C)C(=O)N[C@@H](CO)C(=O)N[C@H](C(=O)N[C@@H](CC(C)C)C(=O)N[C@@H](CCCNC(=N)N)C(=O)N[C@@H](Cc1c[nH]cn1)C(=O)N[C@@H](CCC(N)=O)C(=O)N[C@@H](CC(N)=O)C(=O)N[C@@H](CC(C)C)C(=O)N[C@@H](CC(C)C)C(=O)N[C@@H](CCCCN)C(=O)N[C@@H](CCC(=O)O)C(=O)N[C@@H](CC(C)C)C(=O)N[C@@H](CCC(N)=O)C(=O)N[C@@H](CC(=O)O)C(=O)O)[C@@H](C)CC` [peptide 2a, reference compound] (H-CFETLRGEERILSILRHQNLLKELQD-OH; N-terminus and C-terminus assumed), for which the Ki in series [1] (Table 3b, mean ± SE, read-out: Binding affinity for αvβ6 Ki) is more than 50000 nM; in series [2] (Table 3b, mean ± SE, read-out: Binding affinity for αvβ8 Ki), more than 50000 nM. In addition, the “inhibition of 5a-IRDye binding by excess of free peptide” value in series [3] and in series [4] was “not” in each case.

For the molecule `CC[C@H](C)[C@H](NC(=O)[C@H](CCCNC(=N)N)NC(=O)[C@H](CC(C)C)NC(=O)[C@H](CC(=O)O)NC(=O)CNC(=O)[C@H](CCCNC(=N)N)NC(=O)[C@H](CC(C)C)NC(=O)[C@@H](NC(=O)[C@H](CCC(=O)O)NC(=O)[C@H](Cc1ccccc1)NC(=O)[C@@H](N)CSC1CC(=O)N(CCNC(=O)CN2CCN(CC(=O)O)CCN(CC(=O)O)CC2)C1=O)[C@@H](C)O)C(=O)N[C@@H](CC(C)C)C(=O)N[C@@H](CO)C(=O)N[C@H](C(=O)N[C@@H](CC(C)C)C(=O)N[C@@H](CCCNC(=N)N)C(=O)N[C@H]1Cc2cn(nn2)CCCC[C@@H](C(=O)N[C@@H](CCCCN)C(=O)N[C@@H](CCC(=O)O)C(=O)N[C@@H](CC(C)C)C(=O)N[C@@H](CCC(N)=O)C(=O)N[C@@H](CC(=O)O)C(N)=O)NC(=O)[C@H](CC(C)C)NC(=O)[C@H](CC(N)=O)NC(=O)[C@H](CCC(N)=O)NC1=O)[C@@H](C)CC` (some centres unmarked) [1^8F-NOTA-5a], the tissue uptake at 2 h in series [5] (accumulation in intestine, femur, liver and stomach) is approximately 2 %ID/g; in series [5] (accumulation in the lungs), 1.2 %ID/g; in series [5] (radiotracer levels in the kidneys) it was approximately 80 %ID/g; in series [5] (uptake in brain, heart, spleen, blood, muscle) it was less than 0.5 %ID/g.

In the case of `CC[C@H](C)[C@H](NC(=O)[C@H](CCCNC(=N)N)NC(=O)[C@H](CC(C)C)NC(=O)[C@H](CC(=O)O)NC(=O)CNC(=O)[C@H](CCCNC(=N)N)NC(=O)[C@H](CC(C)C)NC(=O)[C@@H](NC(=O)[C@H](CCC(=O)O)NC(=O)[C@H](Cc1ccccc1)NC(=O)[C@@H](N)CS)[C@@H](C)O)C(=O)N[C@@H](CC(C)C)C(=O)N[C@@H](CO)C(=O)N[C@H](C(=O)N[C@@H](CC(C)C)C(=O)N[C@@H](CCCNC(=N)N)C(=O)N[C@H]1Cc2cn(nn2)CCCC[C@@H](C(=O)N[C@@H](CCCCN)C(=O)N[C@@H](CCC(=O)O)C(=O)N[C@@H](CC(C)C)C(=O)N[C@@H](CCC(N)=O)C(=O)N[C@@H](CC(=O)O)C(N)=O)NC(=O)[C@H](CC(C)C)NC(=O)[C@H](CC(N)=O)NC(=O)[C@H](CCC(N)=O)NC1=O)[C@@H](C)CC` [peptide 5a, CFETLRGDLRILSILRX1QNLX2KELQD], the “inhibition of 5a-IRDye binding by excess of free peptide” value in series [3] and in series [4] was “significantly inhibited” in each case.

As for `CC[C@H](C)[C@H](NC(=O)[C@H](CCCNC(=N)N)NC(=O)[C@H](CC(C)C)NC(=O)[C@H](CC(=O)O)NC(=O)CNC(=O)[C@H](CCCNC(=N)N)NC(=O)[C@H](CC(C)C)NC(=O)[C@@H](NC(=O)[C@H](CCC(=O)O)NC(=O)[C@H](Cc1ccccc1)NC(C)=O)[C@@H](C)O)C(=O)N[C@@H](CC(C)C)C(=O)N[C@@H](CO)C(=O)N[C@H](C(=O)N[C@@H](CC(C)C)C(=O)N[C@@H](CCCNC(=N)N)C(=O)N[C@H]1Cc2cn(nn2)CCCC[C@@H](C(=O)N[C@@H](CCCCN)C(=O)N[C@@H](CCC(=O)O)C(=O)N[C@@H](CC(C)C)C(=O)N[C@@H](CCC(N)=O)C(=O)N[C@@H](CC(=O)O)C(N)=O)NC(=O)[C@H](CC(C)C)NC(=O)[C@H](CC(N)=O)NC(=O)[C@H](CCC(N)=O)NC1=O)[C@@H](C)CC` [peptide 5, FETLRGDLRILSILRX1QNLX2KELQD] (Ac-FETLRGDLRILSILR[Pra]QNL[Lys(N3)]KELQD-NH2; triazole 16-20), the Ki came out at 0.6 ± 0.1 nM in series [1] (Table 3a and text, ± standard error of the mean, read-out: Ki αvβ6); 3.2 ± 1.2 nM in series [2] (Table 3a and text, ± standard error of the mean, read-out: Ki αvβ8). In series [6], the cytotoxicity in vitro entry is “not cytotoxic”. The half-life at 454 μg/ml in series [7] was 4.3 h.
